What was measured:
AHR [1] = biological target: T1, AHR (Homo sapiens, UniProt P35869); assay: In vitro assay 2: agonism in human cell line (transactivation assay)
T1 sequence (P35869 11-848): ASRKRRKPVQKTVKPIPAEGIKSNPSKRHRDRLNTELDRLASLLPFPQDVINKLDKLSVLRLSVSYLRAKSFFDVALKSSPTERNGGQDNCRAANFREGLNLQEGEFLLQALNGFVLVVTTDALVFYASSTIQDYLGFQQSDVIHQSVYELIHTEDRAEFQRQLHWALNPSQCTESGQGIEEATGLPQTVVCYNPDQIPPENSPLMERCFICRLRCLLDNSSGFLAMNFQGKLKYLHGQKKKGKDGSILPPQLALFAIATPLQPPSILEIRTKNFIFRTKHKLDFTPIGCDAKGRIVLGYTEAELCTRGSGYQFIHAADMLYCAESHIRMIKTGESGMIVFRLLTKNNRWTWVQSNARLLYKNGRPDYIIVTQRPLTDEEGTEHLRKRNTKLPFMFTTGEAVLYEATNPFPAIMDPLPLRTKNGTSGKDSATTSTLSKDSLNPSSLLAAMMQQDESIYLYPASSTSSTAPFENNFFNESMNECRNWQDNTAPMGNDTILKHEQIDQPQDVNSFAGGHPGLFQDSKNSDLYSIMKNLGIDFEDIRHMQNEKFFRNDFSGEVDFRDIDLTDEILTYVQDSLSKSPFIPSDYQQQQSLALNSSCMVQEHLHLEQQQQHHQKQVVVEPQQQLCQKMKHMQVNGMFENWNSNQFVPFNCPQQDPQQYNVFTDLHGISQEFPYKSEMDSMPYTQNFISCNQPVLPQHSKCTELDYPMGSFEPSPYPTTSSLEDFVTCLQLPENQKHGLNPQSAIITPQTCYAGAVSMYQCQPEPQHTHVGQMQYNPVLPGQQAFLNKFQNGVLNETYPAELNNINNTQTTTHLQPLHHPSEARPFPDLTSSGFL

[2] = system: AHR-regulated gene CYP1A1; assay: In vitro assay 3: AHR-regulated CYP1A1 expression in human cell line (U937, qPCR); settings: Homo sapiens, U-937, 6 h, read-out: Assay 3: Hum CYP1A1 Antagonism IC50 [M], U937 cells, 200 μM KA, 6 hours, qPCR
AHR [3] = biological target: T1, AHR; assay: In vitro assay 1: antagonism in human cell line (transactivation assay, kynurenic acid prestimulated); settings: Assay 1: AHR-luc Hum Antagonism IC50 [M], 150 μM kynurenic acid, 20 hours, firefly luciferase
Description: Transactivation assays were carried out in U87 glioblastoma cells (ATCC) endogenously expressing AHR. In addition the cells were stably transfected with an AHR inducible firefly luciferase reporter gene construct that carried AHR-binding sites (DRE) in its promoter and a renilla reporter gene construct with constitutively active promoter. Kynurenic acid is an endogenous AHR activating ligand and was used to prestimulate test cells prior to testing the antagonistic properties of compounds.
In Vitro Assay 1: Antagonism in Human Cell Line
Cells in medium (tryptophan free RPMI, 1% FCS, 2 mM Glutamine) supplemented with 150 μM kynurenic acid were grown for 20 hours in absence (negative control) or presence of increasing concentrations of test compounds (typical dilutions: 72 pmol/L, 0.25 nmol/L, 0.89 nmol/L; 3.1 nmol/L, 11 nmol/L, 38 nmol/L, 130 nmol/L, 470 nmol/L, 1.6 μmol/L, 5.7 μmol/L and 20 μmol/L in duplicates). As positive inhibition control cells supplemented with 150 μM kynurenic acid were incubated in presence of 5 μM Staurosporin. Normalization was done by positive and negative controls.
Firefly luciferase and Renilla activity was determined by the DualGlo Luciferase Assay System (Promega, #2920).

[4] = Assay 2: AHR-luc Hum Agonism IC50 [M], no kynurenic acid, 20 hours, firefly luciferase

Row | SMILES | IC50 (AHR [1]; [4]) [M] | IC50 [2] [M] | IC50 (AHR [3]) [M] | IC50 (AHR [1]; read-out: Assay 2: AHR-luc Hum Agonism IC50, no kynurenic acid, 20 hours, firefly luciferase) [M]
1 | O=C(N[C@@H]1CCC[C@@H]1O)c1cc(-c2ccc(Cl)cc2)nn(-c2cccc(F)c2)c1=O (relative stereo) [Example 109, 6-(4-Chlorophenyl)-2-(3-fluorophenyl)-N-(cis-2-hydroxycyclopentyl)-3-oxo-2,3-dihydropyridazine-4-carboxamide] | > 2e-05 | 3.61e-08 | – | –
2 | CC[C@@H](CO)NC(=O)c1cc(-c2ccc(Cl)c(Cl)c2)nn(-c2cccc(F)c2)c1=O [Example 306, 6-(3,4-Dichlorophenyl)-2-(3-fluorophenyl)-N-[(2S)-1-hydroxybutan-2-yl]-3-oxo-2,3-dihydropyridazine-4-carboxamide] | > 2e-05 | 1.75e-07 | 1.06e-07 | –
3 | O=C(N[C@H]1CCC[C@@H]1O)c1cc(-c2ccc(Cl)cc2)nn(-c2cccc(F)c2)c1=O (single isomer, unassigned) [Example 124, 6-(4-Chlorophenyl)-2-(3-fluorophenyl)-N-(trans-2-hydroxycyclopentyl)-3-oxo-2,3-dihydropyridazine-4-carboxamide] | > 2e-05 | 3.59e-08 | 3.65e-08 | –
4 | COC[C@H](CO)NC(=O)c1cc(-c2ccc(Cl)cc2)nn(-c2cccc(F)c2)c1=O [Example 229, 6-(4-Chlorophenyl)-2-(3-fluorophenyl)-N-[(2S)-1-hydroxy-3-methoxypropan-2-yl]-3-oxo-2,3-dihydropyridazine-4-carboxamide] | > 2e-05 | 2e-06 | 1.5e-07 | –
5 | Cc1cccc(-n2nc(-c3ccc(Cl)cc3)cc(C(=O)N[C@H](CO)C(C)C)c2=O)c1 [Example 365, 6-(4-chlorophenyl)-N-[(2S)-1-hydroxy-3-methylbutan-2-yl]-2-(3-methylphenyl)-3-oxo-2,3-dihydropyridazine-4-carboxamide] | > 2e-05 | > 1e-06 | 4.18e-07 | –
6 | Cc1ccc(-c2cc(C(=O)N[C@@H](C)CO)c(=O)n(-c3cccc(F)c3)n2)cc1C [Example 89, 6-(3,4-dimethylphenyl)-2-(3-fluorophenyl)-N-[(2S)-1-hydroxypropan-2-yl]-3-oxo-2,3-dihydropyridazine-4-carboxamide] | – | 1.88e-07 | 1.15e-07 | –
7 | CC(O)C(C)NC(=O)c1cc(-c2ccc(Cl)cc2)nn(-c2cccc(F)c2)c1=O (centres unmarked) [Example 131, 6-(4-Chlorophenyl)-2-(3-fluorophenyl)-N-(3-hydroxybutan-2-yl]-3-oxo-2,3-dihydropyridazine-4-carboxamide] | > 2e-05 | 8.26e-08 | 4.69e-08 | –
8 | Cc1ccc(-c2cc(C(=O)NC(CO)C(C)C)c(=O)n(-c3ccccc3)n2)cc1 (centres unmarked) [Example 70, N-(1-hydroxy-3-methylbutan-2-yl)-6-(4-methylphenyl)-3-oxo-2-phenyl-2,3-dihydropyridazine-4-carboxamide] | – | 1.26e-07 | 9.22e-08 | –
9 | Cc1ccc(-c2cc(C(=O)NC(C)CO)c(=O)n(-c3cccc(F)c3)n2)cc1 (centres unmarked) [Example 7, 2-(3-Fluorophenyl)-N-(1-hydroxypropan-2-yl)-6-(4-methylphenyl)-3-oxo-2,3-dihydropyridazine-4-carboxamide] | – | 1.23e-07 | 6.4e-08 | –
10 | Cc1ccc(-c2cc(C(=O)N[C@@H](CO)C(C)C)c(=O)n(-c3cccc(F)c3)n2)cc1 [Example 3, 2-(3-Fluorophenyl)-N-[(2R)-1-hydroxy-3-methylbutan-2-yl]-6-(4-methylphenyl)-3-oxo-2,3-dihydropyridazine-4-carboxamide] | – | 1.31e-07 | 3.03e-07 | –
11 | Cc1ccc(-c2cc(C(=O)N[C@H](CO)C(C)C)c(=O)n(-c3cccc(F)c3)n2)cc1C [Example 83, 6-(3,4-dimethylphenyl)-2-(3-fluorophenyl)-N-[(2S)-1-hydroxy-3-methylbutan-2-yl]-3oxo-2,3-dihydropyridazine-4-carboxamide] | – | 2.39e-08 | 3.6e-08 | –
12 | CC[C@@H](CO)NC(=O)c1cc(-c2ccc(C)c(C)c2)nn(-c2cccc(F)c2)c1=O [Example 86, 6-(3,4-dimethylphenyl)-2-(3-fluorophenyl)-N-[(2S)-1-hydroxybutan-2-yl]-3-oxo-2,3-dihydropyridazine-4-carboxamide] | – | 4.83e-08 | 4.55e-08 | –
13 | CC(O)C(C)NC(=O)c1cc(-c2ccc(OC(F)F)cc2)nn(-c2cccc(F)c2)c1=O (centres unmarked) [Example 140, 6-[4-(Difluoromethoxy)phenyl]-2-(3-fluorophenyl)-N-(3-hydroxybutan-2-yl)-3-oxo-2,3-dihydropyridazine-4-carboxamide] | > 2e-05 | – | 2.05e-07 | –
14 | CC(CO)CNC(=O)c1cc(-c2ccc(Cl)cc2)nn(-c2cccc(F)c2)c1=O (single isomer, unassigned; (+)) [Example 201, (+)-6-(4-Chlorophenyl)-2-(3-fluorophenyl)-N-(3-hydroxy-2-methylpropyl)-3-oxo-2,3-dihydropyridazine-4-carboxamide] | > 2e-05 | – | 8.64e-08 | –
15 | O=C(NCC(O)C(F)(F)F)c1cc(-c2ccc(Cl)c(F)c2)nn(-c2cccc(F)c2)c1=O (single isomer, unassigned) [Example 284, 6-(4-chloro-3-fluorophenyl)-2-(3-fluorophenyl)-3-oxo-N-(3,3,3-trifluoro-2-hydroxypropyl)-2,3-dihydropyridazine-4-carboxamide] | – | – | 8.39e-07 | > 2e-05
16 | C[C@@H](CO)NC(=O)c1cc(-c2ccc(Cl)cc2)nn(-c2cccc(C#N)c2)c1=O [Example 400, 6-(4-chlorophenyl)-2-(3-cyanophenyl)-N-[(2S)-1-hydroxypropan-2-yl]-3-oxo-2,3-dihydropyridazine-4-carboxamide] | > 2e-05 | – | 8e-07 | –

Other lines, results leading:

Row | IC50 (AHR [1]; [4]) [M] | IC50 [2] [M] | IC50 (AHR [3]) [M] | IC50 (AHR [1]; read-out: Assay 2: AHR-luc Hum Agonism IC50, no kynurenic acid, 20 hours, firefly luciferase) [M] | SMILES
17 | > 2e-05 | 2.91e-08 | 2.03e-08 | – | O=C(N[C@H]1CCC[C@H]1O)c1cc(-c2ccc(Cl)cc2)nn(-c2cccc(F)c2)c1=O [Example 111, 6-(4-Chlorophenyl)-2-(3-fluorophenyl)-N-[(1S,2R)-2-hydroxycyclopentyl]-3-oxo-2,3-dihydropyridazine-4-carboxamide]
18 | > 2e-05 | 1.35e-08 | 1.11e-08 | – | O=C(NC(CO)C(F)(F)F)c1cc(-c2ccc(OC(F)(F)F)cc2)nn(-c2cccc(F)c2)c1=O (centres unmarked) [Example 169, 2-(3-Fluorophenyl)-3-oxo-N-(1,1,1-trifluoro-3-hydroxypropan-2-yl)-6-[4-(trifluoromethoxy)phenyl]-2,3-dihydropyridazine-4-carboxamide]
19 | > 2e-05 | 1.15e-09 | 4.16e-09 | – | Cc1ccc(-c2cc(C(=O)N[C@H](CO)C(C)C)c(=O)n(-c3cc(F)cc(F)c3)n2)cc1 [Example 51, 2-(3,5-Difluorophenyl)-N-[(2S)-1-hydroxy-3-methylbutan-2-yl]-6-(4-methylphenyl)-3-oxo-2,3-dihydropyridazine-4-carboxamide]
20 | > 2e-05 | 6.06e-08 | 3.54e-08 | – | O=C(NC(CO)C1CCCO1)c1cc(-c2ccc(C(F)(F)F)cc2)nn(-c2cccc(F)c2)c1=O (racemic) [Example 263, 3,6-Anhydro-2,4,5-trideoxy-2-[({2-(3-fluorophenyl)-3-oxo-6-[4-(trifluoromethyl)phenyl]-2,3-dihydropyridazin-4-yl}carbonyl)amino]-DL-erythro-hexitol and 1,4-anhydro-2,3,5-trideoxy-5-[({2-(3-fluorophenyl)-3-oxo-6-[4-(trifluoromethyl)phenyl]-2,3-dihydropyridazin-4-yl}carbonyl)amino]-DL-threo-hexitol]
21 | > 2e-05 | 3.62e-08 | 2.89e-08 | – | CC(CCO)NC(=O)c1cc(-c2ccc(C(F)(F)F)cc2)nn(-c2cccc(F)c2)c1=O (racemic) [Example 253, 2-(3-Fluorophenyl)-N-[(2RS)-4-hydroxybutan-2-yl]-3-oxo-6-[4-(trifluoromethyl)phenyl]-2,3-dihydropyridazine-4-carboxamide]
22 | – | 3.1e-08 | 2.98e-08 | – | Cc1ccc(-c2cc(C(=O)NC(CO)C(C)C)c(=O)n(-c3cccc(F)c3)n2)cc1 (centres unmarked) [Example 1, 2-(3-Fluorophenyl)-N-(1-hydroxy-3-methylbutan-2-yl)-6-(4-methylphenyl)-3-oxo-2,3-dihydropyridazine-4-carboxamide]
23 | – | 3.54e-08 | 1.89e-08 | – | CC[C@@H](CO)NC(=O)c1cc(-c2ccc(Cl)cc2)nn(-c2cccc(F)c2)c1=O [Example 21, 6-(4-Chlorophenyl)-2-(3-fluorophenyl)-N-[(2S)-1-hydroxybutan-2-yl]-3-oxo-2,3-dihydropyridazine-4-carboxamide]

— US11040035B2, “3-oxo-2,6-diphenyl-2,3-dihydropyridazine-4-carboxamides” (BAYER PHARMA AKTIENGESELLSCHAFT, priority 2016, dated 2021)
